Measured values reported in patent US20120253007A1 (The Government of the United States of America, as …, priority 2011, published 2012).

Test system: leukocyte migration (chemotaxis) stimulated by f-MLP
Test: leukocyte chemotaxis assay: leukocyte migration stimulated by f-MLP
Conditions: concentration not given

Substance: cyclosporin H
- activity in studies involving leukocyte chemotaxis induced by f-MLP (result in words): functionally active
- activity in studies involving leukocyte chemotaxis induced by f-MLP (result in words) (listed as purified cyclosporin H): active
